Tests used:
[1] = target: T1, murine TLR7 (Mus musculus, UniProt P58681); assay: HEK-Blue mTLR7 NF-κB/AP-1 SEAP reporter cell assay; type: cell-based; details: HEK-Blue mTLR7 reporter cells, 10 μg/mL to 10 pg/ml, 24 hours, OD at 655 nm; FIGS. 2A, 2B
T1 construct: host or cells: HEK293 (HEK-Blue mTLR7)
T1 sequence (P58681 27-1050): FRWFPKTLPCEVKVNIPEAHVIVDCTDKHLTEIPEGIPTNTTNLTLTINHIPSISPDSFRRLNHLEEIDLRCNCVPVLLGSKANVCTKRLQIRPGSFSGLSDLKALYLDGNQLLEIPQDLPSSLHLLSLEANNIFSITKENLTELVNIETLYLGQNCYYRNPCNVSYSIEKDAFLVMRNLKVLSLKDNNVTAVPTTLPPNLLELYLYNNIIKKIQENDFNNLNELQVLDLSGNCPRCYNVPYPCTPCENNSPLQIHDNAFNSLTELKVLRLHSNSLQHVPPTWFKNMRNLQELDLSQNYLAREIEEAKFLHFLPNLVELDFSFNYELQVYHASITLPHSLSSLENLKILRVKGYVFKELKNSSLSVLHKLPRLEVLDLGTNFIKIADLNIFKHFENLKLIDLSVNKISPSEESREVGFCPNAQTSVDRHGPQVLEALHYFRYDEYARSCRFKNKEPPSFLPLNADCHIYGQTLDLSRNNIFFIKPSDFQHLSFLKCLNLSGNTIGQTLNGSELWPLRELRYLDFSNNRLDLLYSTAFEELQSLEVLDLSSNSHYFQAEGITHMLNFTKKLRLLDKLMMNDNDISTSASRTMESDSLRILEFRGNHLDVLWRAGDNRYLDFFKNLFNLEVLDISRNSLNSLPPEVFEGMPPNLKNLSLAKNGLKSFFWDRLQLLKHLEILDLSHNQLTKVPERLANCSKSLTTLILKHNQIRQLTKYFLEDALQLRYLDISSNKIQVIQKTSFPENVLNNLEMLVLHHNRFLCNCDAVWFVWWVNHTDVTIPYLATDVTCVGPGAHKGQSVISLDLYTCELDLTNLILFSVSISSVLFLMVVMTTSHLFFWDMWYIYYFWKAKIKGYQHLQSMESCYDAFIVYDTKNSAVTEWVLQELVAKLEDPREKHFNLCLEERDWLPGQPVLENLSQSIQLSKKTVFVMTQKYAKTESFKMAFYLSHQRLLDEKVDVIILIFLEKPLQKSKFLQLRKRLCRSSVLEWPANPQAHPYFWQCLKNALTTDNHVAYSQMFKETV
Protocol: (§1) Some conjugated compounds of the invention were tested for their ability to activate TLR7 and TLR2 receptor signaling. Cell-based assays were carried out using TLR7 and TLR2 reporter cell lines (InvivoGen). The reporter cell lines are engineered HEK293 cells, a human embryonic kidney cell line (ATCC, CRL-1573) that stably express either murine TLR7 (HEK-Blue™ mTLR7) or human TLR7 (HEK-Blue™ hTLR7) or murine TLR2 (HEK-Blue™ mTLR2) or human TLR2 (HEK-Blue™ hTLR2) with an NF-κB-inducible secreted embryonic alkaline phosphatase (SEAP) as the reporter gene. The SEAP reporter gene is placed under the control of the NF-κB and AP-inducible promoter. Stimulation with the corresponding TLR ligand activates NF-κB and AP-1, which induces the production of SEAP. Detection of SEAP is measured following culturing cells in HEK-Blue™ Detection media (InvivoGen). HEK-Blue™ Detection contains a SEAP substrate, which upon hydrolysis by SEAP produces a colorimetric change allowing for detection of SEAP as the protein is secreted. […] These assays were carried out using RAW-Blue™ Cells (InvivoGen), derived from RAW 264.7 mouse leukemic monocytic macrophage cell line (ATCC, CRL 2278) stably overexpressing a NF-κB/AP-1 inducible SEAP reporter constructs.
(§2) To perform the assay, cells were seeded on 96 well microliter plates at 50,000 or 100,000 cells per well for HEK-Blue™ Cells and RAW-Blue™ Cells respectively, and cultured at 37° C. in the presence of the conjugated compounds. The conjugated compounds were prepared as follows: First, stock solutions of the small molecule conjugated compounds of the invention were prepared in ethanol or water to a concentration of 10 mg/ml. A working dilution of the conjugated TLR7-TLR2 small molecules was made up in water and added to cells at a final range of concentrations from 10 μg/mL to 10 pg/ml. The working dilutions of the conjugated TLR7-TLR2 small molecules as the stated concentrations were directly added to the reporter cell lines and incubated at 37° C. for 24 hours. After 24 hours of incubation, the effect on reporter gene activity was determined by reading the OD at 655 nm using iMark™ Microplate Reader (BIO-RAD).
(§3) The conjugated compounds were tested alone for their ability to specifically activate TLR7 and TLR2, alongside the known TLR7 activators R848 or CL264 (InvivoGen) and the TLR2 agonists Pam2CSK4 or Pam3CSK4 (InvivoGen). The specificity of the TLR activity was determined by use of reporter cell lines to the other TLRs (data not shown). […] The molecules show a tendency to activate mouse TLR7 with greater sensitivity than human TLR7. […] Furthermore, dose-dependent responses of the conjugated compounds indicate significant TLR activities of TLR7 and TLR2 compared to the corresponding controls.

[2] = tested on: NF-κB in RAW-Blue™ Cells (RAW 264.7, endogenous TLR7 and TLR2); assay: RAW-Blue Cells NF-κB/AP-1 inducible SEAP reporter assay; type: cell-based, mouse; details: murine monocytic macrophage cell line RAW 264.7, 24 hours, OD at 655 nm; FIGS. 5A, 5B
Protocol: as §1, §2, §3

[3] = target: T2, human TLR2 (Homo sapiens, UniProt O60603); assay: HEK-Blue hTLR2 NF-κB/AP-1 SEAP reporter cell assay; type: cell-based; details: HEK-Blue hTLR2 reporter cells, 10 μg/mL to 10 pg/ml, 24 hours, OD at 655 nm; FIGS. 3A, 3B
T2 construct: host or cells: HEK293 (HEK-Blue hTLR2)
Protocol: as §1, §2, §3

[4] = target: T3, murine TLR2 (Mus musculus, UniProt Q9QUN7); assay: HEK-Blue mTLR2 NF-κB/AP-1 SEAP reporter cell assay; type: cell-based; details: HEK-Blue mTLR2 reporter cells, 10 μg/mL to 10 pg/ml, 24 hours, OD at 655 nm; FIG. 4
T3 construct: host or cells: HEK293 (HEK-Blue mTLR2)
Protocol: as §1, §2, §3

[5] = target: T4, human TLR7 (Homo sapiens, UniProt Q9NYK1); assay: HEK-Blue hTLR7 NF-κB/AP-1 SEAP reporter cell assay; type: cell-based; details: HEK-Blue hTLR7 reporter cells, 10 μg/mL to 10 pg/ml, 24 hours, OD at 655 nm; FIGS. 1A, 1B
T4 construct: host or cells: HEK293 (HEK-Blue hTLR7)
T4 sequence (Q9NYK1 27-1049): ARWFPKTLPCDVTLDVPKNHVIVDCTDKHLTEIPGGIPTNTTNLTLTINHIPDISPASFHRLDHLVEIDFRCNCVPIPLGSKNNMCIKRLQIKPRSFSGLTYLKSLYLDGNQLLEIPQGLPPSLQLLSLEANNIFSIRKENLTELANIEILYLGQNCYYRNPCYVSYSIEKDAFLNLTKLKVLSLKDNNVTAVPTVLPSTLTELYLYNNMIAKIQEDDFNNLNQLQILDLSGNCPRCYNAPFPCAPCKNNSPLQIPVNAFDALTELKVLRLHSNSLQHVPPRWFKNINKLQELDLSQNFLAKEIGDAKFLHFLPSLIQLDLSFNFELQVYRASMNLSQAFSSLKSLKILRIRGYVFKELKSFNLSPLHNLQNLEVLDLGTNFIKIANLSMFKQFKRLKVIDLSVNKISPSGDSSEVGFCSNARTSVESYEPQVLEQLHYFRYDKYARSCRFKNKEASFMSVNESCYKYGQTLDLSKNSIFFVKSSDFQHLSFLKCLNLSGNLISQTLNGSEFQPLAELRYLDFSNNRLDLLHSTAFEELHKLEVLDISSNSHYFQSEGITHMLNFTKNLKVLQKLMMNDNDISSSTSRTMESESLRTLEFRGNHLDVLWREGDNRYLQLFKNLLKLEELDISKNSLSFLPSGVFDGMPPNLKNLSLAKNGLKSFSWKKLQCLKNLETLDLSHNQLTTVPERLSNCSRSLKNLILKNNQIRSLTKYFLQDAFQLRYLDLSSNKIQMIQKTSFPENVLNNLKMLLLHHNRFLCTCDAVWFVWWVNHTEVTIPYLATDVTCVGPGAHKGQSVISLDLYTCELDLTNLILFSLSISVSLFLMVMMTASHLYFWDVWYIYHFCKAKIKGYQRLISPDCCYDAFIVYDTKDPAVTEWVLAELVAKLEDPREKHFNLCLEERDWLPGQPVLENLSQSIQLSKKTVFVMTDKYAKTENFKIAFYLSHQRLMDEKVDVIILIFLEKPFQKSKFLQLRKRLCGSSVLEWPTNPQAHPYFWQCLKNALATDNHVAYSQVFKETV
Protocol: as §1, §2, §3

T2 sequence (O60603 21-784): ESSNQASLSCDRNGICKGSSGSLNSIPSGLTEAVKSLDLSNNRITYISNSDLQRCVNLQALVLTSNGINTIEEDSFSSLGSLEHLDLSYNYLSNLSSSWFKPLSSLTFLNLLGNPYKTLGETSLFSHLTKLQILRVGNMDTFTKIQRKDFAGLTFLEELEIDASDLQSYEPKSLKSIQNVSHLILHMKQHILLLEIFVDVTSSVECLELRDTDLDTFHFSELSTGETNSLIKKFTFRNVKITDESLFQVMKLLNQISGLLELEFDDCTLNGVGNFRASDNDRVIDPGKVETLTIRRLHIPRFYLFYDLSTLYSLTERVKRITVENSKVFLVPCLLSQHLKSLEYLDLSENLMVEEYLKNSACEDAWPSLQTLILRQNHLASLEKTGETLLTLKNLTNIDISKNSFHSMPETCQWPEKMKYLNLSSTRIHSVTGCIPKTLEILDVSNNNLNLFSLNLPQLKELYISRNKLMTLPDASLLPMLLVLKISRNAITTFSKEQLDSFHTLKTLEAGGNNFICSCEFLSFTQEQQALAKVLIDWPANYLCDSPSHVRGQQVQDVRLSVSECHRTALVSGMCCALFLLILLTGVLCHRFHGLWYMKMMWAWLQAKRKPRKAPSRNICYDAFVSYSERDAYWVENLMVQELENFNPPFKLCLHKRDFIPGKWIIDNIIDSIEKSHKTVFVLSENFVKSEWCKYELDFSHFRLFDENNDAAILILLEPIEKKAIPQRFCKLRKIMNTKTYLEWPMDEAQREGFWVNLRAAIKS
T3 sequence (Q9QUN7 25-784): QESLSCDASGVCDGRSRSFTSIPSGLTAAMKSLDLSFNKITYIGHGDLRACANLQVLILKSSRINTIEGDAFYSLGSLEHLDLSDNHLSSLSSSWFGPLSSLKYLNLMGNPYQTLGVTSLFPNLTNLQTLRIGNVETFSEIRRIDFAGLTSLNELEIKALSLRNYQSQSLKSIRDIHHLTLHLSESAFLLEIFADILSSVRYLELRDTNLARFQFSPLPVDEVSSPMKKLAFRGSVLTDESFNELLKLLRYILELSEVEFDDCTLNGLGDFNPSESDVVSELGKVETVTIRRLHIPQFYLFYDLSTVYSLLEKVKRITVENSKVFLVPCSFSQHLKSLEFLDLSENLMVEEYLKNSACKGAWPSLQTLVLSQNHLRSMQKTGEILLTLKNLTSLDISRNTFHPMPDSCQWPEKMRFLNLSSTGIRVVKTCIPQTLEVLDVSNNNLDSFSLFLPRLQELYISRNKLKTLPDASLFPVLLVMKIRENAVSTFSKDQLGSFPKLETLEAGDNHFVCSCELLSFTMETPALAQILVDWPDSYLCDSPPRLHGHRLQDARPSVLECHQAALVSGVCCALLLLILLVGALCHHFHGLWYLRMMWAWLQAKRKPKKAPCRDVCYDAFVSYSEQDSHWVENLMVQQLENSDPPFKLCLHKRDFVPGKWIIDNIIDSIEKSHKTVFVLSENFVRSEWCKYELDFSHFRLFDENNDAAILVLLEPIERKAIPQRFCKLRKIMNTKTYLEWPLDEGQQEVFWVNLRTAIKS

| ability to activate TLR7 receptors (murine TLR7) [1] | ability to activate TLR2 receptor (human TLR2) [3] | ability to activate TLR2 receptor (murine TLR2) [4] | ability to activate TLR7 receptors (human TLR7) [5] | SMILES | induction of NF-κB in RAW-Blue cells [2] |
| --- | --- | --- | --- | --- | --- |
| activate TLR7 receptors | activate TLR2 receptor | activate TLR2 receptor | activate TLR7 receptors | CCCCCCCCCCCCCCCCCC(=O)OCCSC[C@H](N)C(=O)Nc1ccc(Cn2c(O)nc3c(N)nc(NCCCC)nc32)cc1 [CL557, (R)-2-(2-amino-3-(4-((6-amino-2-(butylamino)-8-hydroxy-9H-purin-9-yl)methyl)phenylamino)-3-oxopropylthio)ethyl stearate] | activate NF-κB |
| activate TLR7 receptors | activate TLR2 receptor | activate TLR2 receptor | activate TLR7 receptors | CCCCCCCCCCCCCCCC(=O)OCCSC[C@H](N)C(=O)Nc1ccc(Cn2c(O)nc3c(N)nc(NCCCC)nc32)cc1 [CL556, (R)-2-(2-amino-3-(4-((6-amino-2-(butylamino)-8-hydroxy-9H-purin-9-yl)methyl)phenylamino)-3-oxopropylthio)ethyl palmitate] | activate NF-κB |
| activate TLR7 receptors | activate TLR2 receptor | activate TLR2 receptor | activate TLR7 receptors | CCCCCCCCCCCCCC(=O)OCCSC[C@H](N)C(=O)N[C@@H](CO)C(=O)Nc1ccc(Cn2c(O)nc3c(N)nc(NCCCC)nc32)cc1 [CL558, 2-((R)-2-amino-3-((S)-1-(4-((6-amino-2-(butylamino)-8-hydroxy-9H-purin-9-yl)methyl)phenylamino)-3-hydroxy-1-oxopropan-2-ylamino)-3-oxopropylthio)ethyltetradecanoate] | activate NF-κB |
